Among the data in patent US11759455B2, “Substituted 1H-imidazo[4,5-b]pyridin-2(3H)-ones and their use as GLUN2B receptor modulators” (JANSSEN PHARMACEUTICA NV, priority 2016, dated 2023) are IC50 values, retold here.

For the assay, the target named is T1, human GluN1/GluN2B NMDA receptors (Homo sapiens, UniProt Q13224).
T1 construct: expressed in transfected cells
The assay is described as follows: Cell-based calcium flux (FLIPR) assay on cloned human NR1/NR2B ion channels expressed in mammalian cells (standard and HTS buffer variants).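 Further: stable Tet-On inducible cell line, Ca2+ influx triggered by glutamate at about EC40 plus 10 µM glycine, fluorescent dye read-out over 5 min, normalized to control wells.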

Setting [1] is: standard assay buffer (0.5 mM MgCl2 in dye loading buffer; 137 mM NaCl, 4 mM KCl in assay buffer), human GluN1/GluN2B, read-out: NR2B IC50 (μM) standard assay.
Where [2] appears, read: HTS assay buffer (1.5 mM MgCl2 in dye loading buffer; 150 mM NaCl, 3 mM KCl in assay buffer), human GluN1/GluN2B, read-out: NR2B IC50 (μM) HTS assay.
Where [3] appears, read: standard assay buffer (0.5 mM MgCl2 dye loading; 137 mM NaCl, 4 mM KCl assay buffer), human GluN1/GluN2B cells, read-out: NR2B IC50 (μM) standard assay.

Read-outs that look alike come from different tables or passages of the source.

T1 sequence (Q13224 27-1484, other chains not shown): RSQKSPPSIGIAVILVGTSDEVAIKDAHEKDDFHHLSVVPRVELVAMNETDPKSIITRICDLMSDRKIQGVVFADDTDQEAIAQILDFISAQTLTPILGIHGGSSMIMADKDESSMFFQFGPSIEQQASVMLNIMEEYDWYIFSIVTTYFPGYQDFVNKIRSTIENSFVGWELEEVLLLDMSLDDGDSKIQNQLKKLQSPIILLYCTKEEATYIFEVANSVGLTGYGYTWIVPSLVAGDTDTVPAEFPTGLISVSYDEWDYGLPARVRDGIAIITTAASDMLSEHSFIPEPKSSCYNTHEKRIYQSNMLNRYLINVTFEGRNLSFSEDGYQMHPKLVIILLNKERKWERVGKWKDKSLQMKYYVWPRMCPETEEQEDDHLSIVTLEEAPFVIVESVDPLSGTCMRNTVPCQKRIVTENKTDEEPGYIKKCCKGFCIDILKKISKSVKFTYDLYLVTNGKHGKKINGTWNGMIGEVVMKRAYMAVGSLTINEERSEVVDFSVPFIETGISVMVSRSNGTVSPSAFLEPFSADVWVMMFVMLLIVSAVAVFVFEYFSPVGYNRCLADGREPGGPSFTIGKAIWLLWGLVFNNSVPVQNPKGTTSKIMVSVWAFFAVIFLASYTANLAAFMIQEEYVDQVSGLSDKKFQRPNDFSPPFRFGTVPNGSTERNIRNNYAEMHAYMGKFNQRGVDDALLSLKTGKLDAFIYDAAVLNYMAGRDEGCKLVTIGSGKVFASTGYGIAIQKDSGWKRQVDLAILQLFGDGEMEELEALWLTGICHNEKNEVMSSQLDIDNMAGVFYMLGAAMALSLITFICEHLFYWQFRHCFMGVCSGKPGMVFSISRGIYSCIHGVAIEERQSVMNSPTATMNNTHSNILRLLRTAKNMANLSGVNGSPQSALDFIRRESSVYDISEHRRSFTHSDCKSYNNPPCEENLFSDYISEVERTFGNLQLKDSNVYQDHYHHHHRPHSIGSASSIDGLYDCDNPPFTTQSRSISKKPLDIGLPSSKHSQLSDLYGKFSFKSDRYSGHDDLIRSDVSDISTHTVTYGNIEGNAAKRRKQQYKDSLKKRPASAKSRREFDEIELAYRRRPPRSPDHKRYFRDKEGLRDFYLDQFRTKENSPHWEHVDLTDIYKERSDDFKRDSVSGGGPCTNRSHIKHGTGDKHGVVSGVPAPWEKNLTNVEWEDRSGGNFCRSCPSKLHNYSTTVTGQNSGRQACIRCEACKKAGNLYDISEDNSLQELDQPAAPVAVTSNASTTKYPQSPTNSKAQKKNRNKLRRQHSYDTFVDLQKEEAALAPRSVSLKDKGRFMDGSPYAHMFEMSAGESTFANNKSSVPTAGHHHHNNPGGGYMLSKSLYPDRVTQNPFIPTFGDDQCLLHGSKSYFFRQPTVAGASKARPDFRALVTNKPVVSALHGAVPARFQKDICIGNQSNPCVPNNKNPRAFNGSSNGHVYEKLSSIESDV

In the case of `Cn1c(=O)n(CC(=O)N2CCC2)c2cc(-c3ccc(Cl)c(OC(F)F)c3)cnc21` [Example 592, 1-[2-(Azetidin-1-yl)-2-oxo-ethyl]-6-[4-chloro-3-(difluoromethoxy)phenyl]-3-methyl-imidazo[4,5-b]pyridin-2-one], the IC50 under setting [1] was 0.071 µM.
On to `CN(C)C(=O)Cn1c(=O)n(C)c2ncc(-c3cccnc3)cc21` [Example 429, N,N-Dimethyl-2-[3-methyl-2-oxo-6-(3-pyridyl)imidazo[4,5-b]pyridin-1-yl]acetamide], for which, under setting [1], the IC50 was above 10 µM.
Consider `COCCNC(=O)Cn1c(=O)[nH]c2ncc(-c3ccc(OC)cc3)cc21` [Example 444, N-(2-Methoxyethyl)-2-[6-(4-methoxyphenyl)-2-oxo-3H-imidazo[4,5-b]pyridin-1-yl]acetamide], for which the IC50 under setting [2] was found to be 0.747 µM.
`O=c1[nH]c2ncc(-c3cccc(C(F)(F)F)c3)cc2n1Cc1ccc(C(F)(F)F)nc1` [Example 257, 6-[3-(Trifluoromethyl)phenyl]-1-[[6-(trifluoromethyl)-3-pyridyl]methyl]-3H-imidazo[4,5-b]pyridin-2-one]: the IC50 under setting [3] is 1.46 µM.
Take `Cn1ccc(Cn2c(=O)[nH]c3ncc(-c4ccc(F)c(Cl)c4)cc32)n1` [Example 130, 6-(3-Chloro-4-fluoro-phenyl)-1-[(1-methylpyrazol-3-yl)methyl]-3H-imidazo[4,5-b]pyridin-2-one]: under setting [3], the IC50 came out at 4.73 µM.
Regarding `Cn1c(=O)n(Cc2ncccn2)c2cc(-c3ccc(F)c(F)c3)cnc21` [Example 64, 6-(3,4-Difluorophenyl)-3-methyl-1-(pyrimidin-2-ylmethyl)imidazo[4,5-b]pyridin-2-one], the IC50 under setting [3] turned out to be 3.59 µM.
In the case of `CC(C)(C)C(=O)Cn1c(=O)[nH]c2ncc(-c3cccc(C(F)(F)F)c3)cc21` [Example 611, 1-(3,3-Dimethyl-2-oxo-butyl)-6-[3-(trifluoromethyl)phenyl]-3H-imidazo[4,5-b]pyridin-2-one], the IC50 under setting [1] is 0.204 µM.
In the case of `Cn1cc(Cn2c(=O)n(C)c3ncc(-c4ccc(F)c(F)c4)cc32)cn1` [Example 550, 6-(3,4-Difluorophenyl)-3-methyl-1-[(1-methylpyrazol-4-yl)methyl]imidazo[4,5-b]pyridin-2-one], the IC50 under setting [1] is 0.697 µM.
Consider `O=c1[nH]c2ncc(-c3ccccc3)cc2n1CCN1CCC1` [Example 153, 1-[2-(Azetidin-1-yl)ethyl]-6-phenyl-3H-imidazo[4,5-b]pyridin-2-one], for which the IC50 under setting [3] came out at 0.283 µM.
On the same count and under the same terms, for `O=c1[nH]c2ncc(-c3cccc(C(F)(F)F)c3)cc2n1Cc1cnccc1C(F)(F)F` [Example 260, 6-[3-(Trifluoromethyl)phenyl]-1-[[4-(trifluoromethyl)-3-pyridyl]methyl]-3H-imidazo[4,5-b]pyridin-2-one] the value was 2.86 µM; for `Cc1cc(Cn2c(=O)[nH]c3ncc(-c4ccc(F)cc4)cc32)nn1C` [Example 16, 1-[(1,5-Dimethylpyrazol-3-yl)methyl]-6-(4-fluorophenyl)-3H-imidazo[4,5-b]pyridin-2-one], 8.9 µM.
For the compound `Cc1cc(Cn2c(=O)n(C)c3ncc(-c4ccc(F)c(F)c4)cc32)no1` [Example 8, 6-(3,4-Difluorophenyl)-3-methyl-1-[(5-methylisoxazol-3-yl)methyl]imidazo[4,5-b]pyridin-2-one], under setting [3], the IC50 came out at 0.104 µM.
As to `Cc1ccc(-c2cnc3c(c2)n(Cc2cnn(C)c2)c(=O)n3C)s1` [Example 555, 3-Methyl-1-[(1-methylpyrazol-4-yl)methyl]-6-(5-methyl-2-thienyl)imidazo[4,5-b]pyridin-2-one], the IC50 under setting [1] worked out at 1.31 µM.
As for `Cc1ccccc1-c1cnc2[nH]c(=O)n(CCN3CCCC3)c2c1` [Example 179, 6-(o-Tolyl)-1-(2-pyrrolidin-1-ylethyl)-3H-imidazo[4,5-b]pyridin-2-one], under setting [3], the IC50 stood at 0.707 µM.
Same read-out and setting: in the case of `Cn1ccc(Cn2c(=O)[nH]c3ncc(-c4ccc(F)cc4F)cc32)n1` [Example 132, 6-(2,4-Difluorophenyl)-1-[(1-methylpyrazol-3-yl)methyl]-3H-imidazo[4,5-b]pyridin-2-one] it was 6.76 µM.
With `Cc1cccnc1Cn1c(=O)[nH]c2ncc(-c3ccc(F)c(C)c3F)cc21` [Example 317, 6-(2,4-Difluoro-3-methyl-phenyl)-1-[(3-methyl-2-pyridyl)methyl]-3H-imidazo[4,5-b]pyridin-2-one], under setting [1], the IC50 came out at 0.046 µM.
On to `COc1cc(F)ccc1-c1cnc2[nH]c(=O)n(Cc3cccc(F)c3)c2c1` [Example 499, 6-(4-Fluoro-2-methoxy-phenyl)-1-[(3-fluorophenyl)methyl]-3H-imidazo[4,5-b]pyridin-2-one], for which the IC50 under setting [1] amounted to 0.09 µM.
For the compound `Cn1c(=O)n(CC(=O)N2CC(F)C2)c2cc(-c3cc(C(F)F)cs3)cnc21` [Example 118, 6-[4-(Difluoromethyl)-2-thienyl]-1-[2-(3-fluoroazetidin-1-yl)-2-oxo-ethyl]-3-methyl-imidazo[4,5-b]pyridin-2-one], the IC50 under setting [3] was 0.02 µM.
With `CCOc1cccc(-c2cnc3[nH]c(=O)n(CC(=O)NC4CC4)c3c2)c1` [Example 449, N-Cyclopropyl-2-[6-(3-ethoxyphenyl)-2-oxo-3H-imidazo[4,5-b]pyridin-1-yl]acetamide], the IC50 under setting [2] was 0.638 µM.
Take `O=c1[nH]c2ncc(-c3cccc(F)c3F)cc2n1Cc1cncc(F)c1` [Example 303, 6-(2,3-Difluorophenyl)-1-[(5-fluoro-3-pyridyl)methyl]-3H-imidazo[4,5-b]pyridin-2-one]: under setting [3], the half-inhibitory concentration (IC50) was 0.03 µM.
For `Cn1c(=O)n(Cc2cccnc2)c2cc(-c3cccc(Cl)c3F)cnc21` [Example 359, 6-(3-Chloro-2-fluoro-phenyl)-3-methyl-1-(3-pyridylmethyl)imidazo[4,5-b]pyridin-2-one], the IC50 under setting [1] was 0.096 µM.
`Cn1c(=O)n(Cc2cncnc2)c2cc(-c3ccc(F)c(F)c3)cnc21` [Example 60, 6-(3,4-Difluorophenyl)-3-methyl-1-(pyrimidin-5-ylmethyl)imidazo[4,5-b]pyridin-2-one]: the IC50 under setting [3] was 0.45 µM.
On to `Cc1c(F)ccc(-c2cnc3[nH]c(=O)n(CC(=O)N4CCC4)c3c2)c1F` [Example 579, 1-[2-(Azetidin-1-yl)-2-oxo-ethyl]-6-(2,4-difluoro-3-methyl-phenyl)-3H-imidazo[4,5-b]pyridin-2-one], for which the IC50 under setting [1] is 0.015 µM.
On the same count and under the same terms, for `CNC(=O)Cn1c(=O)[nH]c2ncc(-c3cccc(C(F)(F)F)c3)cc21` [Example 435, N-Methyl-2-[2-oxo-6-[3-(trifluoromethyl)phenyl]-3H-imidazo[4,5-b]pyridin-1-yl]acetamide] the value was 0.264 µM; for `Cc1cccnc1Cn1c(=O)[nH]c2ncc(-c3cccc(F)c3F)cc21` [Example 319, 6-(2,3-Difluorophenyl)-1-[(3-methyl-2-pyridyl)methyl]-3H-imidazo[4,5-b]pyridin-2-one], above 10 µM.
`Cc1cc(Cn2c(=O)[nH]c3ncc(-c4ccc(F)cc4)cc32)no1` [Example 12, 6-(4-Fluorophenyl)-1-[(5-methylisoxazol-3-yl)methyl]-3H-imidazo[4,5-b]pyridin-2-one]: the IC50 under setting [3] was 0.029 µM.
Take `O=c1[nH]c2ncc(-c3cc(F)cc(F)c3)cc2n1CCN1CCCC1` [Example 174, 6-(3,5-Difluorophenyl)-1-(2-pyrrolidin-1-ylethyl)-3H-imidazo[4,5-b]pyridin-2-one]: the IC50 under setting [3] amounted to 1.25 µM.
Take `Cc1cc(-c2cnc3c(c2)n(CC(=O)N(C)C)c(=O)n3C)sc1Cl` [Example 322, 2-[6-(5-Chloro-4-methyl-2-thienyl)-3-methyl-2-oxo-imidazo[4,5-b]pyridin-1-yl]-N,N-dimethyl-acetamide]: the IC50 under setting [1] was found to be 0.023 µM.
In the case of `Cc1nnc(Cn2c(=O)n(C)c3ncc(-c4cccc(C(F)(F)F)c4)cc32)o1` [Example 75, 3-Methyl-1-[(5-methyl-1,3,4-oxadiazol-2-yl)methyl]-6-[3-(trifluoromethyl)phenyl]imidazo[4,5-b]pyridin-2-one], under setting [3], the IC50 worked out at 0.093 µM.
As for `CCOc1ccccc1-c1cnc2[nH]c(=O)n(CC(=O)c3cccs3)c2c1` [Example 458, 6-(2-Ethoxyphenyl)-1-[2-oxo-2-(2-thienyl)ethyl]-3H-imidazo[4,5-b]pyridin-2-one], the IC50 under setting [1] was determined as 0.135 µM.
Still for that read-out and setting: for `Cn1c(=O)n(Cc2cncc(F)c2)c2cc(-c3cccc(F)c3F)cnc21` [Example 346, 6-(2,3-Difluorophenyl)-1-[(5-fluoro-3-pyridyl)methyl]-3-methyl-imidazo[4,5-b]pyridin-2-one] the value was 0.225 µM.
Turning to `Cn1c(=O)n(Cc2ccncn2)c2cc(-c3cccc(F)c3)cnc21` [Example 7, 6-(3-Fluorophenyl)-3-methyl-1-(pyrimidin-4-ylmethyl)imidazo[4,5-b]pyridin-2-one], the IC50 under setting [3] turned out to be 6.77 µM.
As to `Cc1cncc(Cn2c(=O)[nH]c3ncc(-c4cccc(F)c4F)cc32)c1` [Example 310, 6-(2,3-Difluorophenyl)-1-[(5-methyl-3-pyridyl)methyl]-3H-imidazo[4,5-b]pyridin-2-one], under setting [3], the IC50 turned out to be 0.088 µM.
For `Cc1c(F)ccc(-c2cnc3c(c2)n(Cc2cnn(C)c2)c(=O)n3C)c1F` [Example 572, 6-(2,4-Difluoro-3-methyl-phenyl)-3-methyl-1-[(1-methylpyrazol-4-yl)methyl]imidazo[4,5-b]pyridin-2-one], the IC50 under setting [1] stood at 0.15 µM.
Consider `Cc1ccc(C(F)(F)F)cc1-c1cnc2[nH]c(=O)n(CCN3CCC3)c2c1` [Example 172, 1-[2-(Azetidin-1-yl)ethyl]-6-[2-methyl-5-(trifluoromethyl)phenyl]-3H-imidazo[4,5-b]pyridin-2-one], for which the concentration for half-maximal inhibition (IC50) under setting [3] is 0.326 µM.
Same read-out and setting: for `O=c1[nH]c2ncc(-c3ccnc(C(F)(F)F)c3)cc2n1CCN1CCC1` [Example 155, 1-[2-(Azetidin-1-yl)ethyl]-6-[2-(trifluoromethyl)-4-pyridyl]-3H-imidazo[4,5-b]pyridin-2-one] the value was 1.75 µM.

Broadly, the IC50 is the concentration that inhibits the measured activity by half.
